{"source": "patent US7951920B2", "about": "“Conjugate of an antibody against CCR5 and an antifusogenic peptide” (Roche Palo Alto LLC, priority 2006, dated 2011)", "key": {"[1]": {"tested_on": "pseudotyped NL-Bal viruses", "type": "cell-based, HIV", "settings": "pseudotyped NL-Bal virus, JC53-BL cells, 3 day incubation, inhibition of luciferase activity", "protocol": "For the production of pseudotyped NL-Bal viruses, plasmid pNL4-3Δenv (HIV pNL4-3 genomic construct with a deletion within the env gene) and pcDNA3.1/NL-BAL env [pcDNA3.1 plasmid containing NL-Bal env gene (obtained from NIBSC Centralized Facility for AIDS Reagents)] were co-transfected into the HEK 293FT cell line (Invitrogen), cultured in Dulbecco's modified […] (DMEM) containing 10% fetal calf serum (FCS), 100 U/mL Penicillin, 100 μg/mL Streptomycin, 2 mM L-glutamine and 0.5 mg/mL geniticin (all media from Invitrogen/Gibco). The supernatants containing pseudotyped viruses were harvested two days following transfection, and cellular debris was removed by filtration through a 0.45 μm pore size PES (polyethersulfone) filter (Nalgene) and stored at −80° C. in aliquots. For normalization in assay performance, virus stock aliquots were used to infect JC53-BL (US NIH Aids Reagent Program) cells yielding approximately 1.5×10^5 RLU (relative light units) per well. Test antifusogenic peptide-anti-CCR5 antibody conjugates, reference antibodies and reference antifusogenic peptides (T-20, T-1249, T-651 and T-2635) were serially diluted in 96-well plates. The assay was carried out in quadruplicates. Each plate contained cell control and virus control wells. The equivalent of 1.5×10^5 RLU of virus stocks were added to each well, then 2.5×10^4 JC53-BL cells were added to each well, with a final assay volume of 200 μl per well. After 3 day incubation at 37° C., 90% Relative Humidity, and 5% CO2, media were aspirated and 50 μl of Steady-Glo® Luciferase Assay System (Promega) was added to each well. The assay plates were read on a Luminometer (Luminoskan, Thermo Electron Corporation) after 10 minutes of incubation at room temperature. Percent inhibition of luciferase activity was calculated for each dose point after subtracting the background, and IC50 and IC90-values were determined by using XLfit curve fitting software for Excel (version 3.0.5 Build12; […])."}, "[2]": {"tested_on": "CCR5 mutant K171A or E172A", "test": "Epitope binding by alanine scanning (epitope mapping)", "set-up": "species or system human", "settings": "100% epitope binding is defined for wild-type CCR5", "source_text": "Epitope binding is investigated by using alanine scanning according to the method described by W. C. Olson et al. (J. Virol. (1999) 73:4145-55) for epitope mapping. […] Epitope binding for antibody C is found to be 20% for CCR5 mutant K171A or E172A (glu 172 is mutated to ala). 100% epitope binding is defined for wild-type CCR5. A further preferred anti-CCR5 antibody binds to the same epitope as antibody C binds."}, "HIV": {"tested_on": "HIV", "test": "HIV assays", "type": "cell-based", "settings": "comparison with antibody 2D7"}}}
{"molecule": "CC[C@H](C)[C@H](NC(=O)[C@H](CCC(N)=O)NC(=O)[C@H](C)NC(=O)[C@H](CCC(N)=O)NC(=O)[C@H](CCC(=O)O)NC(=O)[C@H](CC(C)C)NC(=O)[C@H](CC(C)C)NC(=O)[C@H](C)NC(=O)[C@@H](NC(=O)[C@@H](NC(=O)[C@H](CCCCN)NC(=O)[C@H](CCC(N)=O)NC(=O)[C@H](CCC(=O)O)NC(=O)[C@H](Cc1c[nH]c2ccccc12)NC(=O)[C@H](CCC(=O)O)NC(=O)[C@H](CCC(N)=O)NC(=O)[C@H](Cc1c[nH]c2ccccc12)NC(C)=O)[C@@H](C)CC)[C@@H](C)O)C(=O)N[C@@H](CCC(N)=O)C(=O)N[C@@H](CCC(N)=O)C(=O)N[C@@H](CCC(=O)O)C(=O)N[C@@H](CCCCN)C(=O)N[C@@H](CC(N)=O)C(=O)N[C@@H](CCC(=O)O)C(=O)N[C@@H](Cc1ccc(O)cc1)C(=O)N[C@@H](CCC(=O)O)C(=O)N[C@@H](CC(C)C)C(=O)N[C@@H](CCC(N)=O)C(=O)N[C@@H](CCCCN)C(=O)N[C@@H](CC(C)C)C(=O)N[C@@H](CC(=O)O)C(=O)N[C@@H](CCCCN)C(=O)N[C@@H](Cc1c[nH]c2ccccc12)C(=O)N[C@@H](C)C(=O)N[C@@H](CO)C(=O)N[C@@H](CC(C)C)C(=O)N[C@@H](Cc1c[nH]c2ccccc12)C(=O)N[C@@H](CCC(=O)O)C(=O)N[C@@H](Cc1c[nH]c2ccccc12)C(=O)N[C@@H](Cc1ccccc1)C(N)=O", "note": "[T-1249]", "values": [{"measurement": "Antiviral activity IC50", "setting": "[1]", "result": 0.011, "unit": "µg/mL"}, {"measurement": "Antiviral activity IC90", "setting": "[1]", "result": 0.09, "unit": "µg/mL"}]}
{"molecule": "CC[C@H](C)[C@H](NC(=O)[C@H](C)NC(=O)[C@H](CCCNC(=N)N)NC(=O)[C@H](CC(=O)O)NC(=O)[C@H](Cc1c[nH]c2ccccc12)NC(=O)[C@H](C)NC(=O)[C@H](CCC(=O)O)NC(=O)[C@H](Cc1c[nH]c2ccccc12)NC(=O)[C@@H](NC(=O)[C@@H](NC(C)=O)[C@@H](C)O)[C@@H](C)O)C(=O)N[C@@H](C)C(=O)N[C@@H](CCC(=O)O)C(=O)N[C@@H](Cc1ccc(O)cc1)C(=O)N[C@@H](C)C(=O)N[C@@H](C)C(=O)N[C@@H](CCCNC(=N)N)C(=O)N[C@H](C(=O)N[C@@H](CCC(=O)O)C(=O)N[C@@H](C)C(=O)N[C@@H](CC(C)C)C(=O)N[C@H](C(=O)N[C@@H](CCCNC(=N)N)C(=O)N[C@@H](C)C(=O)N[C@@H](C)C(=O)N[C@@H](CCC(N)=O)C(=O)N[C@@H](CCC(=O)O)C(=O)N[C@@H](CCC(N)=O)C(=O)N[C@@H](CCC(N)=O)C(=O)N[C@@H](CCC(=O)O)C(=O)N[C@@H](CCCCN)C(=O)N[C@@H](CC(N)=O)C(=O)N[C@@H](CCC(=O)O)C(=O)N[C@@H](C)C(=O)N[C@@H](C)C(=O)N[C@@H](CC(C)C)C(=O)N[C@@H](CCCNC(=N)N)C(=O)N[C@@H](CCC(=O)O)C(=O)N[C@@H](CC(C)C)C(N)=O)[C@@H](C)CC)[C@@H](C)CC", "note": "[T-2635]", "values": [{"measurement": "Antiviral activity IC50", "setting": "[1]", "result": 0.014, "unit": "µg/mL"}, {"measurement": "Antiviral activity IC90", "setting": "[1]", "result": 0.161, "unit": "µg/mL"}]}
{"molecule": "enfuvirtide", "values": [{"measurement": "Antiviral activity IC50", "setting": "[1]", "result": 0.206, "unit": "µg/mL"}, {"measurement": "Antiviral activity IC90", "setting": "[1]", "result": 3.955, "unit": "µg/mL"}]}
{"molecule": "Antibody C: anti-CCR5 antibody, variable domains SEQ ID NO:5, 6 (antibody, V domains shown, mouse) VH: QVQLKQSGPGLVRPSQSLSITCTVSGFPLGIFGVHWVRQSPGKGLEWLGVIWKGGNTDYNAAFMSRLRITKDNSKSQVFFRMNSLQTDDTAIYYCAKVNLADAMDYWGQGTSVIVSS VL: DIQMTQSPASLSASVGETVTITCRASGNIHGYLAWFQQKQGKSPQLLVYNTKTLAEGVPSRFSGSGSGTQFSLKINSLQPEDFGNYYCQHHYDLPRTFGGGTKLEIKR", "values": [{"measurement": "Epitope binding", "setting": "[2]", "result": 20, "unit": "%"}, {"measurement": "IC50 values compared with antibody 2D7", "setting": "HIV", "result": "lower IC50 values than antibody 2D7"}]}
